Columns and labels:
OBP2 = assay: Fluorescent-quench ligand-protein-binding assay (OBP2 binding); design: species or system Apis mellifera
Source text: To identify a honeybee repellent disclosed herein, candidate compounds were screened based upon the fact that 2-heptanone is an established repellent of bees. 2-heptanone is thought to mediate its behavioral response through binding to a specific odorant-binding protein called OBP2. […] Such assays are generally known in the art. See, e.g., Briand, et al., Ligand-Binding Properties and Structural Characterization of a Novel Rat Odorant-Binding Protein Variant, Eur. J. Biochem. 267(10): 3079-3089 (2000); Briand, et al., Ligand Binding and Physico-Chemical Properties of ASP2, A Recombinant Odorant-Binding Protein From Honeybee (Apis mellifera L.), Eur. J. Biochem. 268(3): 752-760 (2001); Briand, et al., Characterization of a Chemosensory Protein (ASP3c) from Honeybee (Apis mellifera L.) as a Brood Pheromone Carrier, Eur. J. Biochem. 269(18): 4586-4596 (2002), each of which is hereby incorporated by reference in its entirety.

[1] = test system: Apis mellifera Carniolan foraging worker honeybees; assay: Proboscis extension response (PER) assay with bees conditioned to 2-heptanone; type: in vivo; conditions: 0.5% compound in Triton X-100/water on filter paper, 4 s exposure; only bees giving PER with 2-heptanone and not with water or 15% Triton X-100 controls counted
Protocol: To determine whether a living honeybee can recognize a candidate compound, these compounds were tested using a proboscis extension response (PER) assay using classical conditioning approaches. Proboscis extension response conditioning is a case of appetitive learning, in which bees learn to associate odor stimuli with sucrose reward in the laboratory. In this case, bees were conditioned to produce a PER to 2-heptanone as the conditioned stimulus and a sugar reward as the unconditioned stimulus. These trained bees were then exposed to an odor pulse of a candidate compound to test whether a candidate compound would also produce a PER. If the candidate compound “mimics” 2-heptanone then the honeybee will extend its proboscis.
For conditioning procedures, Apis mellifera Carniolan foraging worker honeybees were obtained from a local apiary (typically 60 bees per shipment). The honeybees were held overnight in insect cages with food and water freely available, in an environmentally controlled room on a light cycle similar to the ambient cycle at the time of the assay.
For conditioning procedures, all tests were done in an odorant delivery apparatus set inside a fume hood. The apparatus comprised a set of open-ended, horizontal, 3 cm diameter by 10 cm long plastic tubes. Each tube was designed where a honeybee could be positioned at the distal end of a tube, with the opening at the other end of the tube located proximal to an inlet of the fume hood. To deliver an odorant, room air was pumped by a diaphragm pump through a particle filter via 0.25 inch plastic tubing at approximately 0.7 m/sec. The air flow passes into the headspace above an odorant (0.5% [v/v] 2-heptanone dissolved in odorless light paraffin oil) contained in a 100 mL bottle. The headspace air then passes through another plastic tube to a manifold of 4-way valves, each of which was attached near the proximal end of a plastic tube containing a bee. Each bee was exposed separately for a desired time period to the odorant by opening and closing the appropriate valve. When each valve was closed, the odor was flushed away immediately by the continuous fume hood air stream.
To train a honeybee to respond to a conditioned and unconditioned stimuli, bees were placed, without anesthesia, in individual 1.5 mL micro-centrifuge holding tubes and held overnight without access to food or water. The holding tubes containing the starved bees were placed in racks in groups of eight. One rack at a time was placed behind the odorant delivery apparatus so that each bee's head is centered at the distal end of a horizontal plastic tube. Each bee was exposed to the 2-heptanone odorant alone for four seconds, and then while being fed an 80% sucrose solution for and additional three seconds. The sucrose solution was delivered on a piece of saturated filter paper held in forceps. […] Positive and negative responses were recorded. A positive PER was scored when a bee extended its proboscis before the sucrose appeared. In a typical trial, 48 individual bees were subjected to conditioning.
After conditioning, honeybees were tested with the candidate compounds the same day or on the following day or, most commonly, both. When held overnight, bees were fed with sucrose and kept in their holding tubes. When tested the day after training, bees were given one or more rounds of conditioning with 2-heptatone to refresh their memories. Candidate compounds stocks were made at 5% (w/v) in polyoxyethylene octyl phenyl ether (TRITON® X-100), a non-ionic detergent/surfactant, and stored at 4° C. […] Test solutions were made fresh daily by mixing stock solutions with water for a final compound concentration of 0.5%. A solution of 0.5% 2-heptanone in paraffin oil was used as a positive control.

Row | Compound | OBP2 binding characteristic of compound (OBP2) | 2-heptanone positive bees testing positive to compound [1] [%]
1 | CCOC(=O)CSc1nc2c(c(=O)n1-c1ccccc1)C1(CCCC1)Cc1ccccc1-2 [compound 71] | Moderate (Moderate, indicates that 50% or less of the compound bound to OBP2.) | 19.1
2 | O=C1CSC(=O)N1CC(O)Cn1c2ccc(Cl)cc2c2cc(Cl)ccc21 (centres unmarked) [compound 72] | Moderate (Moderate, indicates that 50% or less of the compound bound to OBP2.) | 2.3
3 | O=C(c1ccccc1)N1N=C(C(F)(F)F)CC1(O)c1ccccc1O (centres unmarked) [compound 73] | Moderate (Moderate, indicates that 50% or less of the compound bound to OBP2.) | 8.3
4 | c1ccn(-c2ncnc3sc4c(c23)CCCC4)c1 [compound 77] | Moderate (Moderate, indicates that 50% or less of the compound bound to OBP2.) | 14.3
5 | CCOC(=O)c1c(-c2ccccc2)csc1NC(=S)NC(C)=O [compound 78] | Moderate (Moderate, indicates that 50% or less of the compound bound to OBP2.) | 7.7
6 | Cc1cc(C)c(O)c(N=Cc2cc(I)cc(I)c2O)c1 [compound 82] | Moderate (Moderate, indicates that 50% or less of the compound bound to OBP2.) | 6.4
7 | COc1ccc2ccccc2c1C=Nc1cc(C)ccc1C [compound 84] | Moderate (Moderate, indicates that 50% or less of the compound bound to OBP2.) | 27.9
8 | O=C1NC(=S)SC1=Cc1ccc(N2CCOCC2)c([N+](=O)[O-])c1 [compound 85] | Moderate (Moderate, indicates that 50% or less of the compound bound to OBP2.) | 18.0
9 | Oc1ccc(Br)cc1C=Nc1ccc(NCc2ccccc2)cc1 [compound 87] | Moderate (Moderate, indicates that 50% or less of the compound bound to OBP2.) | 9.5
10 | O=C1c2ccccc2C(=O)c2c1ccc1c(=O)n(C3CCCCC3)[nH]c21 [compound 88] | Moderate (Moderate, indicates that 50% or less of the compound bound to OBP2.) | 14.3
11 | Cc1cc(C)c2ccc(C=Cc3ccccc3N)nc2c1O [compound 90] | Moderate (Moderate, indicates that 50% or less of the compound bound to OBP2.) | 17.0
12 | C=CCN1C(=O)C(=Cc2cccc([N+](=O)[O-])c2O)SC1=S [compound 91] | Moderate (Moderate, indicates that 50% or less of the compound bound to OBP2.) | 17.3
13 | C(=NN(c1ccccc1)c1ccccc1)c1ccncc1 [compound 92] | Moderate (Moderate, indicates that 50% or less of the compound bound to OBP2.) | 7.0
14 | O=C1CCC(=O)N1CC(O)Cn1c2ccc(Br)cc2c2cc(Br)ccc21 (centres unmarked) [compound 93] | Moderate (Moderate, indicates that 50% or less of the compound bound to OBP2.) | 14.0
15 | NC(=O)c1ccccc1NC(=O)c1sc2ccccc2c1Cl [compound 94] | Moderate (Moderate, indicates that 50% or less of the compound bound to OBP2.) | 16.7
16 | CC(C)CCn1c(=O)c(C(=O)NCc2ccco2)c(O)c2ccccc21 [compound 95] | Moderate (Moderate, indicates that 50% or less of the compound bound to OBP2.) | 7.3

Row | Compound | OBP2 binding characteristic of compound (OBP2) | 2-heptanone positive bees testing positive to compound [1] [%]
17 | Oc1c(I)cc2oc3c(c2c1C=Nc1nc[nH]n1)CCCC3 [compound 96] | Moderate (Moderate, indicates that 50% or less of the compound bound to OBP2.) | 28.6
18 | CCN(CC)C(=O)c1c(NC(=O)c2ccco2)sc2c1CCCCC2 [compound 97] | Moderate (Moderate, indicates that 50% or less of the compound bound to OBP2.) | 21.1
19 | Cc1ccc(NC(=O)c2c(NC(=O)c3ccco3)sc3c2CCCCC3)cc1 [compound 98] | Moderate (Moderate, indicates that 50% or less of the compound bound to OBP2.) | 21.6
20 | O=C(Nc1sc2c(c1C(=O)N1CCCCC1)CCCCC2)c1ccccc1 [compound 99] | Moderate (Moderate, indicates that 50% or less of the compound bound to OBP2.) | 29.0
21 | CCOC(=O)c1ccc(N2NC(=O)C(=Cc3ccc(N4CCOCC4)cc3)C2=O)cc1 [compound 101] | Moderate (Moderate, indicates that 50% or less of the compound bound to OBP2.) | 20.9
22 | Cc1[nH]c2ccccc2c1C=NNC(=O)c1cccc(I)c1 [compound 103] | Moderate (Moderate, indicates that 50% or less of the compound bound to OBP2.) | 32.4
23 | O=C1C=Cc2ccccc2C1=NNc1ccc2c(c1)OCCO2 [compound 105] | Moderate (Moderate, indicates that 50% or less of the compound bound to OBP2.) | 24.3
24 | Clc1ccccc1-c1nnc(SCc2ccccc2)o1 [compound 106] | Moderate (Moderate, indicates that 50% or less of the compound bound to OBP2.) | 7.3
25 | COc1ccccc1NC(=S)NC(=O)c1ccc(F)cc1 [compound 107] | Moderate (Moderate, indicates that 50% or less of the compound bound to OBP2.) | 5.1
26 | O=c1nc(C(F)(F)F)cc(C=Cc2ccc(-c3cccc(Cl)c3)o2)[nH]1 [compound 108] | Moderate (Moderate, indicates that 50% or less of the compound bound to OBP2.) | 16.2
27 | Nc1cccc2nc3c4cccc5cccc(c(=O)n3c12)c54 [compound 109] | Moderate (Moderate, indicates that 50% or less of the compound bound to OBP2.) | 12.1
28 | O=C(C=CNc1ccccc1O)c1ccc(Br)cc1 [compound 110] | Moderate (Moderate, indicates that 50% or less of the compound bound to OBP2.) | 31.4
29 | O=C1CSC(=CC(=O)c2ccc(Cl)cc2)N1 [compound 111] | Moderate (Moderate, indicates that 50% or less of the compound bound to OBP2.) | 30.6
30 | O=c1c2cc(O)cc3cccc(c32)c2nc3ccc4c5c(ccc(c35)n12)CC4 [compound 112] | Moderate (Moderate, indicates that 50% or less of the compound bound to OBP2.) | 44.4
31 | O=C(NC(=S)Nc1cccc2cccnc12)c1cccs1 [compound 117] | Moderate (Moderate, indicates that 50% or less of the compound bound to OBP2.) | 
32 | COc1cccc(C=C2SC(=N)NC2=O)c1OCc1ccc(Cl)cc1Cl [compound 118] | Moderate (Moderate, indicates that 50% or less of the compound bound to OBP2.) | 

Source: patent publication US9796676B2, “Honeybee repellents and uses thereof” (Inscent, Inc., priority 2013, dated 2017)
